Measured values published in US10906946B2, “Thrombin inhibitors” (priority 2015, dated 2021).
Values joined by “and” are separate entries in the source; they are usually repeats but may differ in a detail not shown here. Equal values may be shown once. “Also recorded” adds a separate entry of the source. Peptide text beside a SMILES is read from it.

Key:
thrombin [1] = molecular target: T1, thrombin (Homo sapiens, UniProt P00734); test: Cleavage of peptide by thrombin (RP-HPLC, ESI-MS); assay type: biochemical; details: peptide incubated with thrombin (30:1); listed as K10β-avathrin
T1 construct: residues in the termini of the light chain; and in the autolysis loop and C-terminus of the heavy chain; purchased Chemo-Sero-Therapeutic Research Institute (Kaketsuken, Japan), as a gift, not bought
Method: A. Evaluation of avathrin cleavage by thrombin by HPLC chromatograms. Avathrin (150 μM) was incubated with thrombin (5 μM) for various times and the reaction mixtures were separated using RP-HPLC; the masses of the cleavage products were analyzed with ESI-MS. At 0 min (upper panel), a single peak corresponding to full length avathrin (mass 3139 Da) was identified. At 120 min (middle panel), two new peaks corresponding to N-terminal cleavage product (^1[…]^10 of SEQ ID NO: 1; mass 982 Da) and C-terminal cleavage product ([…] (SEQ ID NO: 4); mass 2176 Da) were identified in addition to avathrin peak. At 600 min (lower panel), two peaks corresponding to the N- and C-terminal cleaved products were observed while avathrin peak was not observed, indicating complete cleavage. B. Time-dependent cleavage of avathrin by thrombin. Relative percentages of avathrin, its N- and C-terminal cleavage products were quantified by calculating areas under the curve. Each data point is the mean±S.D. of at least three independent experiments. C. Effect of thrombin cleavage on inhibitory properties of avathrin. Avathrin was incubated with thrombin (0.81 nM) for up to 36 h, and assayed at different time points for its ability to inhibit thrombin amidolytic activity on the chromogenic substrate S2238. […]
Thrombin amidolytic activity assays for all peptides were performed in 96-wells microtiter plates in 50 mM Tris buffer (pH 7.4) containing 100 mM NaCl and 1 mg/ml bovine serum albumin. […] The rates of formation of p-nitroaniline were followed by measuring the absorbance at 405 nm for 10 min with a Tecan InfinitePro M200 microplate reader from Tecan (Männedorf, Switzerland). […] To measure the inhibitory constants, different concentrations of S2238 were used and the residual velocities were determined using the Morrison's tight binding equation. Inhibition of thrombin fibrinogenolytic activity of peptides were tested by measuring absorbance at 650 nm using a Sunrise microplate reader from Tecan (Männedorf, Switzerland) as described previously [Koh C Y, et al., J Biol Chem 282: 29101-13 (2007)]. […] Effects of avathrin on the amidolytic activities of these serine proteases were determined using respective chromogenic substrates. […] After different incubation times, reactions were quenched with 1% TFA (pH 1.8) and loaded onto a Jupiter Proteo column (4 μm, 90 Å, 100×1.0 mm) attached to a Dionex nano-HPLC system from Thermo Fisher Scientific (Waltham, Mass., USA) and eluted using an acetonitrile gradient with 0.05% TFA and 99.95% MilliQ water as eluent A and 0.05% TFA, 19.95% MilliQ water and 80% ACN as eluent B. Masses of all peaks were measured to identify cleavage products, which were subsequently quantified by integrating the peaks and calculating the area under the curves. […]

human α-thrombin = molecular target: T2, human α-thrombin (Homo sapiens, UniProt P00734); test: Thrombin amidolytic activity assay with chromogenic substrate S2238; assay type: biochemical; details: for Hill slope of thrombin amidolytic inhibition: 0 min pre-incubation where stated; for IC50: IC50 of inhibition of thrombin amidolytic activity, S2238 100 μM, without pre-incubation (0 min) where stated
T2 construct: residues in the termini of the light chain; purchased Chemo-Sero-Therapeutic Research Institute (Kaketsuken, Japan), as a gift, not bought
Method: Thrombin amidolytic activity assays for all peptides were performed in 96-wells microtiter plates in 50 mM Tris buffer (pH 7.4) containing 100 mM NaCl and 1 mg/ml bovine serum albumin. […] The rates of formation of p-nitroaniline were followed by measuring the absorbance at 405 nm for 10 min with a Tecan InfinitePro M200 microplate reader from Tecan (Männedorf, Switzerland). Dose-response curves were fitted using the GraphPad Prizm software (San Diego, Calif., USA) to calculate IC50 values and Hill coefficients. To measure the inhibitory constants, different concentrations of S2238 were used and the residual velocities were determined using the Morrison's tight binding equation. Inhibition of thrombin fibrinogenolytic activity of peptides were tested by measuring absorbance at 650 nm using a Sunrise microplate reader from Tecan (Männedorf, Switzerland) as described previously [Koh C Y, et al., J Biol Chem 282: 29101-13 (2007)]. The selectivity of avathrin was examined against 13 serine proteases (FIG. 5). Effects of avathrin on the amidolytic activities of these serine proteases were determined using respective chromogenic substrates. […] Avathrin (150 μM) was incubated with thrombin (5 μM), in 50 mM Tris buffer (pH 7.4) containing 150 mM NaCl and 1 mg/ml BSA. After different incubation times, reactions were quenched with 1% TFA (pH 1.8) and loaded onto a Jupiter Proteo column (4 μm, 90 Å, 100×1.0 mm) attached to a Dionex nano-HPLC system from Thermo Fisher Scientific (Waltham, Mass., USA) and eluted using an acetonitrile gradient with 0.05% TFA and 99.95% MilliQ water as eluent A and 0.05% TFA, 19.95% MilliQ water and 80% ACN as eluent B. Masses of all peaks were measured to identify cleavage products, which were subsequently quantified by integrating the peaks and calculating the area under the curves. To measure the effect of different pre-incubation times on the thrombin inhibitory activity, amidolytic assays were performed for various incubation times (up to 36 h).

thrombin [2] = molecular target: T1, thrombin; test: Inhibition of thrombin fibrinogenolytic activity (fibrinogen clotting time); assay type: biochemical
Method: Thrombin amidolytic activity assays for all peptides were performed in 96-wells microtiter plates in 50 mM Tris buffer (pH 7.4) containing 100 mM NaCl and 1 mg/ml bovine serum albumin. Typically, 100 μl of peptide and 100 μl of thrombin were pre-incubated for different durations before 100 μl of S2238 was added to the reaction wells. The rates of formation of p-nitroaniline were followed by measuring the absorbance at 405 nm for 10 min with a Tecan InfinitePro M200 microplate reader from Tecan (Männedorf, Switzerland). Dose-response curves were fitted using the GraphPad Prizm software (San Diego, Calif., USA) to calculate IC50 values and Hill coefficients. To measure the inhibitory constants, different concentrations of S2238 were used and the residual velocities were determined using the Morrison's tight binding equation. Inhibition of thrombin fibrinogenolytic activity of peptides were tested by measuring absorbance at 650 nm using a Sunrise microplate reader from Tecan (Männedorf, Switzerland) as described previously [Koh C Y, et al., J Biol Chem 282: 29101-13 (2007)]. The selectivity of avathrin was examined against 13 serine proteases (FIG. 5). Effects of avathrin on the amidolytic activities of these serine proteases were determined using respective chromogenic substrates. Cleavage of avathrin by thrombin. Avathrin (150 μM) was incubated with thrombin (5 μM), in 50 mM Tris buffer (pH 7.4) containing 150 mM NaCl and 1 mg/ml BSA. After different incubation times, reactions were quenched with 1% TFA (pH 1.8) and loaded onto a Jupiter Proteo column (4 μm, 90 Å, 100×1.0 mm) attached to a Dionex nano-HPLC system from Thermo Fisher Scientific (Waltham, Mass., USA) and eluted using an acetonitrile gradient with 0.05% TFA and 99.95% MilliQ water as eluent A and 0.05% TFA, 19.95% MilliQ water and 80% ACN as eluent B. Masses of all peaks were measured to identify cleavage products, which were subsequently quantified by integrating the peaks and calculating the area under the curves. To measure the effect of different pre-incubation times on the thrombin inhibitory activity, amidolytic assays were performed for various incubation times (up to 36 h).

[3] = test system: FeCl3-induced carotid artery thrombosis; test: Ferric chloride-induced carotid artery thrombosis model; assay type: in vivo, C57BL/6 male mice; details: mice, 10% FeCl3
Method: All animal experiments were carried out under protocol 041/12 approved by Institutional Animal Care and Use Committee, National University of Singapore. The ferric chloride induced carotid artery thrombosis model was performed as described previously [Eckly A, et al., J Thromb Haemost 9: 779-89 (2011)] with minor modifications. Typically, C57BL/6 male mice (9-11 weeks old, 24.5-27.5 g) were anesthetized with an intraperitoneal injection of ketamine (75 mg/kg) and medetomidine (1 mg/kg). 100 μL of different doses of avathrin were injected into the mice via tail vein. The right carotid artery was dissected using blunt dissection and a vascular injury was caused applying filter paper of 2 mm×2 mm saturated with FeCl3 on top of the carotid artery. After 3 min, the filter paper was removed and the vessel was washed with sterile normal saline. To determine the time to occlusion, a miniature Doppler flow probe (Transonic Systems Inc., Ithaca, N.Y., USA) was placed around the carotid artery and blood flow was recorded using a Transonic® flow meter from ADInstruments (Dunedin, New Zealand). The maximal time for monitoring the blood flow after injury was 30 min. Mice were euthanized by cervical dislocation immediately after the completion of the experiment and prior to recovery from anesthesia.

Row | Molecule | time to complete cleavage by thrombin (thrombin [1]) | fold gain in activity compared with avathrin (human α-thrombin) | Hill slope of thrombin amidolytic inhibition (human α-thrombin) | IC50 (human α-thrombin; thrombin 0.81 nM) | Hill Slope (human α-thrombin; Table 2) | Hill slope of thrombin amidolytic inhibition, 10 min pre-incubation (human α-thrombin) | Ki (human α-thrombin; inhibitory constant Ki for thrombin, thrombin 0.81 nM, various S2238 concentrations) | effect on fibrinogen clotting time / thrombin fibrinogenolytic activity (thrombin [2]) | time to occlusion (TTO) ([3]; 3 mg/kg intravenously) | time to occlusion (TTO) ([3]; 10 mg/kg intravenously) | Ki (human α-thrombin; Ki(nM), Table 2)
1 | CC[C@H](C)[C@H](NC(=O)[C@H](CCCNC(=N)N)NC(=O)[C@@H]1CCCN1C(=O)[C@@H](NC(=O)[C@H](C)NC(=O)[C@@H](NC(=O)[C@H](CCC(N)=O)NC(=O)[C@H](Cc1c[nH]cn1)NC(=O)CNC(=O)CNC(=O)[C@@H](N)CO)[C@@H](C)O)C(C)C)C(=O)N[C@@H](CO)C(=O)N[C@@H](CCCCN)C(=O)N[C@@H](CCC(N)=O)C(=O)NCC(=O)N[C@@H](CC(C)C)C(=O)NCC(=O)NCC(=O)N[C@@H](CC(=O)O)C(=O)N[C@@H](Cc1ccccc1)C(=O)N[C@@H](CCC(=O)O)C(=O)N[C@@H](CCC(=O)O)C(=O)N[C@H](C(=O)N1CCC[C@H]1C(=O)N[C@@H](CO)C(=O)N[C@@H](CC(=O)O)C(=O)N[C@@H](CCC(=O)O)C(=O)N[C@H](C(=O)N[C@H](C(=O)N[C@@H](CCC(=O)O)C(=O)O)[C@@H](C)CC)[C@@H](C)CC)[C@@H](C)CC [Peptide K10R] (H-SGGHQTAVPRISKQGLGGDFEEIPSDEIIE-OH; N-terminus and C-terminus assumed) | 3 h | 5 fold | 1.10±0.01 | 1.15 ± 0.45 nM | 1.10 ± 0.01 |  |  |  |  |  | 
2 | CC[C@H](C)[C@H](NC(=O)[C@H](CCCCN)NC(=O)[C@@H]1CCCN1C(=O)[C@@H](NC(=O)[C@H](C)NC(=O)[C@@H](NC(=O)[C@@H](N)CCC(N)=O)[C@@H](C)O)C(C)C)C(=O)N[C@@H](CO)C(=O)N[C@@H](CCCCN)C(=O)N[C@@H](CCC(N)=O)C(=O)NCC(=O)N[C@@H](CC(C)C)C(=O)NCC(=O)NCC(=O)N[C@@H](CC(=O)O)C(=O)N[C@@H](Cc1ccccc1)C(=O)N[C@@H](CCC(=O)O)C(=O)N[C@@H](CCC(=O)O)C(=O)N[C@H](C(=O)N1CCC[C@H]1C(=O)N[C@@H](CO)C(=O)N[C@@H](CC(=O)O)C(=O)N[C@@H](CCC(=O)O)C(=O)N[C@H](C(=O)N[C@H](C(=O)N[C@@H](CCC(=O)O)C(=O)O)[C@@H](C)CC)[C@@H](C)CC)[C@@H](C)CC [QT26] (H-QTAVPKISKQGLGGDFEEIPSDEIIE-OH; N-terminus and C-terminus assumed) |  |  | 0.88±0.03 | 8.94 ± 0.64 nM | 0.88 ± 0.03 | 0.92±0.03 | 0.7603 ± 0.00091 nM | inhibited |  |  | 
3 | hirulog-1: peptidyl bivalent thrombin inhibitor used as comparator drug |  |  |  |  |  |  |  |  | 9.70 ± 3.15 min and 9.76 ± 3.15 min | 15.22 ± 3.39 min and 15.23 ± 3.39 min | 
4 | CC[C@H](C)[C@H](N)C(=O)N[C@@H](CO)C(=O)N[C@@H](CCCCN)C(=O)N[C@@H](CCC(N)=O)C(=O)NCC(=O)N[C@@H](CC(C)C)C(=O)NCC(=O)NCC(=O)N[C@@H](CC(=O)O)C(=O)N[C@@H](Cc1ccccc1)C(=O)N[C@@H](CCC(=O)O)C(=O)N[C@@H](CCC(=O)O)C(=O)N[C@H](C(=O)N1CCC[C@H]1C(=O)N[C@@H](CO)C(=O)N[C@@H](CC(=O)O)C(=O)N[C@@H](CCC(=O)O)C(=O)N[C@H](C(=O)N[C@H](C(=O)N[C@@H](CCC(=O)O)C(=O)O)[C@@H](C)CC)[C@@H](C)CC)[C@@H](C)CC [IS20] (H-ISKQGLGGDFEEIPSDEIIE-OH; N-terminus and C-terminus assumed) |  |  | 0.86±0.02 | 12.4 ± 0.32 nM | 0.86 ± 0.02 | 0.87±0.01 |  | inhibited the fibrinogenolytic activity of thrombin in a dose-dependent manner; also recorded: prolonged fibrinogen clotting times in a dose dependent manner |  |  | 5.76 ± 0.23 nM
